Target: T1, human kinase Mps-1 (Homo sapiens, UniProt P33981)
T1 construct: N-terminally GST-tagged human full length recombinant Mps-1 kinase; GST (N); purchased Invitrogen, Karslruhe, Germany PV4071
T1 sequence (P33981 1-857): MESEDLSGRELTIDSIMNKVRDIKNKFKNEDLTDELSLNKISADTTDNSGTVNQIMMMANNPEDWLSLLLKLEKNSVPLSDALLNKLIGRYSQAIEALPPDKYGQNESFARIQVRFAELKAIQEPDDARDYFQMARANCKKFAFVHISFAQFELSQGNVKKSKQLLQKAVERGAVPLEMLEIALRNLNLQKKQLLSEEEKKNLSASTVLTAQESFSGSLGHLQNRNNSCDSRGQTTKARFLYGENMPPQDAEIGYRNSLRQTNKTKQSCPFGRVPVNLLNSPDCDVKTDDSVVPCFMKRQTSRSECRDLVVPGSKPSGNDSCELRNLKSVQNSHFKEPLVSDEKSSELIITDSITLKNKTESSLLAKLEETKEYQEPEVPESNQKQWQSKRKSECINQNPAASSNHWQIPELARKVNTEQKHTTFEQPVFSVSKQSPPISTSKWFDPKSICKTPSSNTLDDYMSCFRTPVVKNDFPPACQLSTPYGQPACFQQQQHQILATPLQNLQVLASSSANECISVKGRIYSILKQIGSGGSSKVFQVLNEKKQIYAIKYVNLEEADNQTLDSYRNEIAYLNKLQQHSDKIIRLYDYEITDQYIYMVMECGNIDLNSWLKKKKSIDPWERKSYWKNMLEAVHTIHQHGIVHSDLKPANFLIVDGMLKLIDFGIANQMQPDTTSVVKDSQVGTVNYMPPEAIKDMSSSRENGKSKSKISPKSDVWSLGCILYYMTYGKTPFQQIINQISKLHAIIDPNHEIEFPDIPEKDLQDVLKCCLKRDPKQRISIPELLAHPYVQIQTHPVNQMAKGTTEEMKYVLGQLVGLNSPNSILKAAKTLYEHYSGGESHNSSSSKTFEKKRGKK
Experiment: Mps-1 kinase assay (TR-FRET)
Format: biochemical
Settings: Mps-1 TR-FRET kinase assay; avg; read-out: Mps1 avg (IC50 [mol/l])
Method in brief: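 Inhibition normalised between uninhibited reaction (0%) and enzyme-free wells (100%), using the blank-corrected TR-FRET 665/620 nm ratio after EDTA stop. Reaction: ~0.5 nM GST-Mps-1 full length, 10 μM ATP, 1 μM biotin-peptide, 60 min at 22 °C, after 15 min compound pre-binding, pH 7.7.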

| SMILES | IC50 [µM] |
| --- | --- |
| Cc1nsc(Nc2cncc(C(F)(F)F)n2)c1C(=O)Nc1ccc(OC2CCNCC2)nc1 [Example 13, 3-Methyl-N-[6-(piperidin-4-yloxy)pyridin-3-yl]-5-{[6-(trifluoromethyl)pyrazin-2-yl]-amino}-1,2-thiazole-4-carboxamide] | ≥ 20 |
| Cc1nsc(Nc2cncc(C(F)(F)F)n2)c1C(=O)Nc1ccc(OC2CCN(CCF)CC2)nc1 [Example 14, N-(6-{[1-(2-Fluoroethyl)piperidin-4-yl]oxy}pyridin-3-yl)-3-methyl-5-{[6-(trifluoro-methyl)pyrazin-2-yl]amino}-1,2-thiazole-4-carboxamide] | ≥ 20 |
| Cc1nsc(Nc2cncc(C(F)(F)F)n2)c1C(=O)Nc1ccc(OC2CCN(CC(F)(F)F)CC2)nc1 [Example 16, 3-Methyl-N-(6-{[1-(2,2,2-trifluoroethyl)piperidin-4-yl]oxy}pyridin-3-yl)-5-{[6-(trifluoromethyl)pyrazin-2-yl]amino}-1,2-thiazole-4-carboxamide] | ≥ 20 |
| CC(=O)N1CCC(Oc2ccc(NC(=O)c3c(C)nsc3Nc3cncc(C(F)(F)F)n3)cn2)CC1 [Example 17, N-{6-[(1-Acetylpiperidin-4-yl)oxy]pyridin-3-yl}-3-methyl-5-{[6-(trifluoromethyl)-pyrazin-2-yl]amino}-1,2-thiazole-4-carboxamide] | 18 |
| Cc1nsc(Nc2cnc3ccccc3n2)c1C(=O)Nc1ccc(OC2CCN(C(=O)OC(C)(C)C)CC2)nc1 [Example 18, tert-Butyl 4-{[5-({[3-methyl-5-(quinoxalin-2-ylamino)-1,2-thiazol-4-yl]carbonyl}-amino)pyridin-2-yl]oxy}piperidine-1-carboxylate] | ≥ 20 |
| Cc1nsc(Nc2cnc3ccccc3n2)c1C(=O)Nc1ccc(OC2CCNCC2)nc1 [Example 19, 3-Methyl-N-[6-(piperidin-4-yloxy)pyridin-3-yl]-5-(quinoxalin-2-ylamino)-1,2-thiazole-4-carboxamide] | ≥ 20 |
| Cc1nsc(Nc2cnc3ccccc3n2)c1C(=O)Nc1ccc(OC2CCN(CC(F)F)CC2)nc1 [Example 20, N-(6-{[1-(2,2-difluoroethyl)piperidin-4-yl]oxy}pyridin-3-yl)-3-methyl-5-(quinoxalin-2-ylamino)-1,2-thiazole-4-carboxamide] | ≥ 20 |
| CCN(CC)CCNC(=O)c1cccc(NC(=O)c2c(C)nsc2Nc2cc(C#N)ccn2)c1 [Example 174, 5-[(4-cyanopyridin-2-yl)amino]-N-(3-{[2-(diethylamino)ethyl]carbamoyl}phenyl)-3-methyl-1,2-thiazole-4-carboxamide] | > 20 |
| Cc1nsc(Nc2cc(C#N)ccn2)c1C(=O)Nc1cccc(C(=O)NC2CC2)c1 [Example 175, 5-[(4-cyanopyridin-2-yl)amino]-N-[3-(cyclopropylcarbamoyl)phenyl]-3-methyl-1,2-thiazole-4-carboxamide] | > 20 |
| COC(=O)CCc1cccc(NC(=O)c2c(C)nsc2Nc2ccc(C#N)cn2)c1 [Example 176, methyl 3-{3-[({5-[(5-cyanopyridin-2-yl)amino]-3-methyl-1,2-thiazol-4-yl}carbonyl)amino]phenyl}propanoate] | > 20 |
| Cc1nsc(Nc2cc(C#N)ccn2)c1C(=O)Nc1ccc(NC(=O)OC(C)(C)C)cc1 [Example 177, tert-butyl {4-[({5-[(4-cyanopyridin-2-yl)amino]-3-methyl-1,2-thiazol-4-yl}carbonyl)amino]phenyl}carbamate] | > 20 |
| Cc1nsc(Nc2cnc3ccccc3n2)c1C(=O)Nc1cccc(NC(=O)OC(C)(C)C)c1 [Example 178, tert-butyl [3-({[3-methyl-5-(quinoxalin-2-ylamino)-1,2-thiazol-4-yl]carbonyl}amino)-phenyl]carbamate] | > 20 |
| Cc1nsc(Nc2ccc(C#N)cn2)c1C(=O)Nc1cccc(NC(=O)OC(C)(C)C)c1 [Example 179, tert-butyl {3-[({5-[(5-cyanopyridin-2-yl)amino]-3-methyl-1,2-thiazol-4-yl}carbonyl)amino]phenyl}carbamate] | > 20 |
| Cc1nsc(Nc2ccc(C#N)cn2)c1C(=O)Nc1cccc(N)c1 [Example 180, N-(3-aminophenyl)-5-[(5-cyanopyridin-2-yl)amino]-3-methyl-1,2-thiazole-4-carboxamide] | > 20 |
| Cc1nsc(Nc2cnc3ccccc3n2)c1C(=O)Nc1ccc(C(=O)OC(C)(C)C)cc1 [Example 181, tert-butyl 4-({[3-methyl-5-(quinoxalin-2-ylamino)-1,2-thiazol-4-yl]carbonyl}amino)benzoate] | > 20 |
| Cc1nsc(Nc2cc(C#N)ccn2)c1C(=O)Nc1ccc(C(=O)OC(C)(C)C)cc1 [Example 182, tert-butyl 4-[({5-[(4-cyanopyridin-2-yl)amino]-3-methyl-1,2-thiazol-4-yl}carbonyl)amino]benzoate] | > 20 |
| Cc1nsc(Nc2cc(C#N)ccn2)c1C(=O)Nc1cccc(NC(=O)C(C)(C)C)c1 [Example 183, 5-[(4-cyanopyridin-2-yl)amino]-N-{3-[(2,2-dimethylpropanoyl)amino]phenyl}-3-methyl-1,2-thiazole-4-carboxamide] | > 20 |
| Cc1nsc(Nc2cnccn2)c1C(=O)Nc1ccc(C(=O)OC(C)(C)C)cc1 [Example 184, tert-butyl 4-({[3-methyl-5-(pyrazin-2-ylamino)-1,2-thiazol-4-yl]carbonyl}amino)benzoate] | > 20 |
| Cc1nsc(Nc2cnc3ccccc3n2)c1C(=O)Nc1ccc(NC(=O)C(C)(C)C)cc1 [Example 185, N-{4-[(2,2-dimethylpropanoyl)amino]phenyl}-3-methyl-5-(quinoxalin-2-ylamino)-1,2-thiazole-4-carboxamide] | > 20 |
| Cc1nsc(Nc2cnc3ccccc3n2)c1C(=O)Nc1cccc(NC(=O)C(C)(C)C)c1 [Example 186, N-{3-[(2,2-dimethylpropanoyl)amino]phenyl}-3-methyl-5-(quinoxalin-2-ylamino)-1,2-thiazole-4-carboxamide] | > 20 |
| Cc1nsc(Nc2cnc3ccccc3n2)c1C(=O)Nc1ccc(C(=O)O)cc1 [Example 187, 4-({[3-methyl-5-(quinoxalin-2-ylamino)-1,2-thiazol-4-yl]carbonyl}amino)benzoic acid] | 5.4 |
| Cc1nsc(Nc2cnc3ccccc3n2)c1C(=O)Nc1ccccc1S(C)(=O)=O [Example 188, 3-methyl-N-[2-(methylsulfonyl)phenyl]-5-(quinoxalin-2-ylamino)-1,2-thiazole-4-carboxamide] | > 20 |
| Cc1nsc(Nc2cncc(C(F)(F)F)n2)c1C(=O)Nc1ccc(OC2CCCN(C(=O)OC(C)(C)C)C2)nc1 (stereo not shown) [Example 189, tert-butyl 3-[(5-{[(3-methyl-5-{[6-(trifluoromethyl)pyrazin-2-yl]amino}-1,2-thiazol-4-yl)carbonyl]amino}pyridin-2-yl)oxy]piperidine-1-carboxylate] | > 20 |
| Cc1nsc(Nc2cncc(C(F)(F)F)n2)c1C(=O)Nc1ccc(OCCCNC(=O)OC(C)(C)C)nc1 [Example 190, tert-butyl {3-[(5-{[(3-methyl-5-{[6-(trifluoromethyl)pyrazin-2-yl]amino}-1,2-thiazoL-4-yl)carbonyl]amino}pyridin-2-yl)oxy]propyl}carbamate] | > 20 |
| Cc1nsc(Nc2cncc(C(F)(F)F)n2)c1C(=O)Nc1ccc(OCCNC(=O)OC(C)(C)C)nc1 [Example 191, tert-butyl {2-[(5-{[(3-methyl-5-{[6-(trifluoromethyl)pyrazin-2-yl]amino}-1,2-thiazol-4-yl)carbonyl]amino}pyridin-2-yl)oxy]ethyl}carbamate] | > 20 |
| Cc1nsc(Nc2cnc(C(F)(F)F)cn2)c1C(=O)Nc1ccc(OCCNC(=O)OC(C)(C)C)nc1 [Example 192, tert-butyl {2-[(5-{[(3-methyl-5-{[5-(trifluoromethyl)pyrazin-2-yl]amino}-1,2-thiazol-4-yl)carbonyl]amino}pyridin-2-yl)oxy]ethyl}carbamate] | > 20 |
| Cc1nsc(Nc2cncc(C(F)(F)F)n2)c1C(=O)Nc1ccc(C(=O)OC(C)(C)C)cc1 [Example 193, tert-butyl tert-butyl 4-{[(3-methyl-5-{[6-(trifluoromethyl)pyrazin-2-yl]amino}-1,2-thiazol-4-yl)carbonyl]amino}benzoate] | > 20 |
| Cc1nsc(Nc2cncc(C(F)(F)F)n2)c1C(=O)Nc1cccc(S(C)(=O)=O)c1 [Example 194, 3-methyl-N-[3-(methylsulfonyl)phenyl]-5-{[6-(trifluoromethyl)pyrazin-2-yl]amino}-1,2-thiazole-4-carboxamide] | > 10 |
